Test system: LC3-I/LC3-II, autophagosomes
Assay: Autophagy: LC3 western, EGFP-LC3 fluorescence, TEM of autophagosomes
Format: cell-based
Method: Proteins were resolved on an 8%, 12%, or 15% SDS-PAGE gel (as appropriate) and electrophoretically transferred to polyvinyldifluoride (PVDF) membranes. After blocking with 5% (w/v) milk in TBST (Tris-Buffered Saline containing 0.1% Tween-20) for one hour at room temperature, membranes were incubated with primary antibodies (at appropriate dilution) overnight at 4° C., followed by extensive washing and incubation for 1 hour with the appropriate horseradish peroxidase-conjugated secondary antibodies (BioRad, Hercules, Calif.). Blots were washed extensively. A rabbit polyclonal EVI1 antibody was obtained (1:3000 dilution, St. Jude's Children's Hospital, Memphis, Tenn.). SnoN rabbit polyclonal (1:1000 dilution), PML, and p21 SMURF2 rabbit polyclonal (1:500 dilution), MRP1 mouse monoclonal (1:500 dilution) and GAPDH mouse monoclonal (1:250 dilution) antibodies were obtained from Santa Cruz Biotechnology (Santa Cruz, Calif.). TGFβRII rabbit polyclonal (1:1000 dilution) antibody was obtained from Strategic Diagnostics (Newark, Del.). Smad2/3 rabbit polyclonal (1:1000 dilution), Beclin-1 rabbit polyclonal (1:1000 dilution), AKT rabbit polyclonal (1:1000 dilution), TAK1 rabbit polyclonal (1:1000 dilution), PARP rabbit polyclonal (1:1000 dilution), Beclin-1 rabbit polyclonal (1:1000 dilution), caspase-3 rabbit polyclonal (1:1000) which detects the pro-caspase form, and ATG5 rabbit polyclonal (1:1000 dilution), LC3-II rabbit polyclonal (1:1000 dilution) antibodies were obtained from Cell Signaling Technology (Danvers, Mass.). The HSP27 mouse monoclonal (1:1000 dilution) antibody was obtained from Stressgen (Ann Arbor, Mich.). Blots were developed using chemiluminescence substrates (Amersham Piscataway, N.J. or BioRad, Hercules, Calif.). Monoclonal PAI-1 antibody was obtained from BD Pharmingen. PSMAD2, total SMAD2/3, p-ERK, p-AKT, and total AKT antibodies were obtained from Cell Signaling Technology. A monoclonal antibody against Arkadia was obtained from Abnova (Taiwan).
HEY cells were seeded onto glass coverslips and allowed to adhere following overnight incubation. The cells were then transiently transfected with EGFP-LC3 (Addgene, Cambridge, Mass.) and allowed to recover for 24 hours. The cells were treated at the appropriate concentrations of As2O3 in the absence or presence of 3-MA (5 and 10 mM), for 18 hours. The cells were then fixed in 4% paraformaldehyde in PBS for 30 minutes at room temperature, washed twice in PBS, and blocked for 1 hour at room temperature in PBS containing 5% goat serum and 0.1% Triton X-100. The cells were counterstained with Hoescht nuclear stain, washed 3 times for 5 minutes in PBS, anti-Fade containing DAPI nuclear stain was then applied, and coverslips mounted onto glass slides and viewed under a Zeiss inverted fluorescence microscope (Moffitt Cancer Center Microscopy Core).
Autophagy induction was analyzed using electron microscopy. […] Cells were then fixed in 2.5% glutaraldehyde in 0.1M phosphate buffer overnight at 4° C. Following rinsing in buffer, cells were scraped from the culture flasks, washed, and then post-fixed in 1% osmium tetroxide in buffer. After dehydration in a graded series of acetone, the cells were embedded in Embed 812 epoxy resin. Thin sections (70 nm) were cut on an Ultramicrotome. The sections on the grids were stained with uranyl acetate and lead citrate. The sections were examined on a Transmission Electron Microscope (Morgagni 268D).

Arsenic trioxide [As2O3]
levels of LC3-I and LC3-II (As2O3, 18 hours, correlated with SnoN expression): increased
EGFP-LC3 staining pattern (HEY, As2O3 between 5 μM to 25 μM, data not shown): punctuate staining pattern around the nucleus
autophagosomes by TEM (HEY, data not shown): numerous double membrane autophagosomes

From patent US8211646B1, “Methods of treating ovarian cancer by modulating SnoN” (University of South Florida, priority 2008, dated 2012)
